Laboratory results as given in PMC4823954, “From fighting depression to conquering tumors: a novel tricyclic thiazepine compound as a tubulin polymerization inhibitor” (Cell Death & Disease, 2016).

How the values were obtained:
Assay in all cases: KINOMEscan
Format in all cases: binding
Settings in all cases: read-out: % Ctrl
MERTK = target: T1, MERTK (Homo sapiens, UniProt Q12866)
T1 construct: purchased DiscoveRx KINOMEscan
Procedure, shortened: (§1)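 Competition binding panel of 442 non-mutant kinases: test compound at 5 and 10 μM competed with an active-site-directed ligand for 1 h with shaking. Bound kinase was eluted with 0.5 μM ligand and quantified by qPCR; %Ctrl = (compound − positive control)/(DMSO − positive control) × 100, lower meaning tighter binding.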

GRK1 = target: T2, GRK1 (Homo sapiens, UniProt Q15835)
T2 construct: purchased DiscoveRx KINOMEscan
Procedure, shortened: as §1

MEK4 = target: T3, MEK4 (Homo sapiens, UniProt P45985)
T3 construct: purchased DiscoveRx KINOMEscan
T3 sequence (P45985 whole entry): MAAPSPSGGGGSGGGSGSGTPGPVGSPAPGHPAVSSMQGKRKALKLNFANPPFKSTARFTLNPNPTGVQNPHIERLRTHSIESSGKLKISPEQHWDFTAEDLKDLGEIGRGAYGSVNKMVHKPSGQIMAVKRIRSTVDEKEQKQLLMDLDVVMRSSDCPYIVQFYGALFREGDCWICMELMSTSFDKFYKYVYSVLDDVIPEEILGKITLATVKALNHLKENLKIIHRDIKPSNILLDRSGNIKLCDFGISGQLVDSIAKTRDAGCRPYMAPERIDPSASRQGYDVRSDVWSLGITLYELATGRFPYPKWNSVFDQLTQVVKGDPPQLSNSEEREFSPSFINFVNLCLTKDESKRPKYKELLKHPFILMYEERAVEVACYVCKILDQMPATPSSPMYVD
Procedure, shortened: as §1

PIK3CB = target: T4, PIK3CB (Homo sapiens, UniProt P42338)
T4 construct: purchased DiscoveRx KINOMEscan
Procedure, shortened: as §1

CSK = target: T5, CSK (Homo sapiens, UniProt P41240)
T5 construct: purchased DiscoveRx KINOMEscan
T5 sequence (P41240 whole entry): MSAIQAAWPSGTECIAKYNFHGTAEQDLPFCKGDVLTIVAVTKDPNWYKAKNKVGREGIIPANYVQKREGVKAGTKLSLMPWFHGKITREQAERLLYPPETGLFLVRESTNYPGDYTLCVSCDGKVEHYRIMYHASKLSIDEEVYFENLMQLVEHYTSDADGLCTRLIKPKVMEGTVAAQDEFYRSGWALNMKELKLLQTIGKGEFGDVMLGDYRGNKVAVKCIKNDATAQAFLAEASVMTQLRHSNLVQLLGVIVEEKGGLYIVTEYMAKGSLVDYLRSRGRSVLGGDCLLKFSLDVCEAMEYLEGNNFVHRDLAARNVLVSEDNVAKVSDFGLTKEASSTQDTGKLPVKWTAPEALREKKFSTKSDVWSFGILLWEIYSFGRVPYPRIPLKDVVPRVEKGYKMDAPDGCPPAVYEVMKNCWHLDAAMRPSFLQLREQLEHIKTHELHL
Procedure, shortened: as §1

MET = target: T6, MET (Homo sapiens, UniProt P08581)
T6 construct: purchased DiscoveRx KINOMEscan
Procedure, shortened: as §1

ERBB2 = target: T7, ERBB2 (Homo sapiens, UniProt P04626)
T7 construct: purchased DiscoveRx KINOMEscan
Procedure, shortened: as §1

PKAC-alpha = target: T8, PKAC-alpha (Homo sapiens, UniProt P17612)
T8 construct: purchased DiscoveRx KINOMEscan
Procedure, shortened: as §1

CSNK2A2 = target: T9, CSNK2A2 (Homo sapiens, UniProt P19784)
T9 construct: purchased DiscoveRx KINOMEscan
Procedure, shortened: as §1

NEK5 = target: T10, NEK5 (Homo sapiens, UniProt Q6P3R8)
T10 construct: purchased DiscoveRx KINOMEscan
Procedure, shortened: as §1

BRSK2 = target: T11, BRSK2 (Homo sapiens, UniProt Q8IWQ3)
T11 construct: purchased DiscoveRx KINOMEscan
Procedure, shortened: as §1

CDKL5 = target: T12, CDKL5 (Homo sapiens, UniProt O76039)
T12 construct: purchased DiscoveRx KINOMEscan
Procedure, shortened: as §1

TRKA = target: T13, TRKA (Homo sapiens, UniProt P04629)
T13 construct: purchased DiscoveRx KINOMEscan
Procedure, shortened: as §1

EPHA3 = target: T14, EPHA3 (Homo sapiens, UniProt P29320)
T14 construct: purchased DiscoveRx KINOMEscan
Procedure, shortened: as §1

ACVR2B = target: T15, ACVR2B (Homo sapiens, UniProt Q13705)
T15 construct: purchased DiscoveRx KINOMEscan
Procedure, shortened: as §1

CSNK1E = target: T16, CSNK1E (Homo sapiens, UniProt P49674)
T16 construct: purchased DiscoveRx KINOMEscan
T16 sequence (P49674 whole entry): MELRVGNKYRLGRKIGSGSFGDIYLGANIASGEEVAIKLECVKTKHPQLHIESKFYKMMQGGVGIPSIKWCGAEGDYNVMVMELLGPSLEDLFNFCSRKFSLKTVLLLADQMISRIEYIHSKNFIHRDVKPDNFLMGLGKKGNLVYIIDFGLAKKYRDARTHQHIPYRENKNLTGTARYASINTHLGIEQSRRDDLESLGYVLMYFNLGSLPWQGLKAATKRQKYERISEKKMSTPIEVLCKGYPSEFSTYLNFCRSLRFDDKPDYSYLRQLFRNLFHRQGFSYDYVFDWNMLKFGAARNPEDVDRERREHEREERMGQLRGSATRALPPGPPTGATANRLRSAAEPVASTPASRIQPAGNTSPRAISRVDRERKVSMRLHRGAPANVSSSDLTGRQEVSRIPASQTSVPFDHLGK
Procedure, shortened: as §1

[1] = target: RPS6KA5(Kin.Dom.2-C-terminal) (Homo sapiens, UniProt O75582)
Procedure, shortened: as §1

CTK = target: T17, CTK (Homo sapiens, UniProt P42679)
T17 construct: purchased DiscoveRx KINOMEscan
Procedure, shortened: as §1

NEK7 = target: T18, NEK7 (Homo sapiens, UniProt Q8TDX7)
T18 construct: purchased DiscoveRx KINOMEscan
T18 sequence (Q8TDX7 whole entry): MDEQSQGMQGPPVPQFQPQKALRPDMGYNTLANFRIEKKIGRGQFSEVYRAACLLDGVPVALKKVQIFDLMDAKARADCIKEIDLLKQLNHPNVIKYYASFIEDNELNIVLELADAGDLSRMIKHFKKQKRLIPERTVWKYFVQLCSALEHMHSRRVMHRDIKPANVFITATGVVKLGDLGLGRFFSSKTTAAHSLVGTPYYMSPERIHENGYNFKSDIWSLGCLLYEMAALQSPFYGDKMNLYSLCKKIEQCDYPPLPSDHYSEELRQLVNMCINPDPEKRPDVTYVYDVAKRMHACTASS
Procedure, shortened: as §1

BLK = target: T19, BLK (Homo sapiens, UniProt P51451)
T19 construct: purchased DiscoveRx KINOMEscan
Procedure, shortened: as §1

CAMKK1 = target: T20, CAMKK1 (Homo sapiens, UniProt Q8N5S9)
T20 construct: purchased DiscoveRx KINOMEscan
Procedure, shortened: as §1

FGFR3 = target: T21, FGFR3 (Homo sapiens, UniProt P22607)
T21 construct: purchased DiscoveRx KINOMEscan
T21 sequence (P22607 23-806): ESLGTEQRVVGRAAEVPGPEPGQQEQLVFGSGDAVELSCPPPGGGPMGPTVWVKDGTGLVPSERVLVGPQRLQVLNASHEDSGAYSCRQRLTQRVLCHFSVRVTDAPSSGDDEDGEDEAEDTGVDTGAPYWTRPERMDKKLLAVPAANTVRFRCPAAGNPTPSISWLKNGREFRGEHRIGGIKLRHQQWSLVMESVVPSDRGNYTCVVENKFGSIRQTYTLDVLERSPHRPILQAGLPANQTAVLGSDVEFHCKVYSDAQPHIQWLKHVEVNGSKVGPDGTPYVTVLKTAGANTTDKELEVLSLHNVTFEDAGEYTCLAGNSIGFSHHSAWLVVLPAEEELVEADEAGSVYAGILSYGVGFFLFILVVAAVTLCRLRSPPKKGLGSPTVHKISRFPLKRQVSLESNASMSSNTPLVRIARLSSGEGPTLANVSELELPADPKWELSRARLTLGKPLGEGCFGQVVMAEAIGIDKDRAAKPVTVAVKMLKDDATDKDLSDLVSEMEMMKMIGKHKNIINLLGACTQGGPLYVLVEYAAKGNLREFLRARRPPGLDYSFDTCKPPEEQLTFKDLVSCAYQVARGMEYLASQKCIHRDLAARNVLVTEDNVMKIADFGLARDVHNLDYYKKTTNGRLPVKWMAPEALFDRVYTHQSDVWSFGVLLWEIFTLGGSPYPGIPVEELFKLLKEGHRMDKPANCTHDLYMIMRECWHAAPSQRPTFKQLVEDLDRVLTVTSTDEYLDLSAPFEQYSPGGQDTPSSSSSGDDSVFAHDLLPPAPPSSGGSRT
Procedure, shortened: as §1

[2] = target: T22, ABL1(M351T)-phosphorylated (Homo sapiens, UniProt P00519, M351T)
T22 construct: purchased DiscoveRx KINOMEscan

TLK1 = target: T23, TLK1 (Homo sapiens, UniProt Q9UKI8)
T23 construct: purchased DiscoveRx KINOMEscan
Procedure, shortened: as §1

ZAK = target: T24, ZAK (Homo sapiens, UniProt Q9NYL2)
T24 construct: purchased DiscoveRx KINOMEscan
Procedure, shortened: as §1

MRCKB = target: T25, MRCKB (Homo sapiens, UniProt Q9Y5S2)
T25 construct: purchased DiscoveRx KINOMEscan
T25 sequence (Q9Y5S2 whole entry): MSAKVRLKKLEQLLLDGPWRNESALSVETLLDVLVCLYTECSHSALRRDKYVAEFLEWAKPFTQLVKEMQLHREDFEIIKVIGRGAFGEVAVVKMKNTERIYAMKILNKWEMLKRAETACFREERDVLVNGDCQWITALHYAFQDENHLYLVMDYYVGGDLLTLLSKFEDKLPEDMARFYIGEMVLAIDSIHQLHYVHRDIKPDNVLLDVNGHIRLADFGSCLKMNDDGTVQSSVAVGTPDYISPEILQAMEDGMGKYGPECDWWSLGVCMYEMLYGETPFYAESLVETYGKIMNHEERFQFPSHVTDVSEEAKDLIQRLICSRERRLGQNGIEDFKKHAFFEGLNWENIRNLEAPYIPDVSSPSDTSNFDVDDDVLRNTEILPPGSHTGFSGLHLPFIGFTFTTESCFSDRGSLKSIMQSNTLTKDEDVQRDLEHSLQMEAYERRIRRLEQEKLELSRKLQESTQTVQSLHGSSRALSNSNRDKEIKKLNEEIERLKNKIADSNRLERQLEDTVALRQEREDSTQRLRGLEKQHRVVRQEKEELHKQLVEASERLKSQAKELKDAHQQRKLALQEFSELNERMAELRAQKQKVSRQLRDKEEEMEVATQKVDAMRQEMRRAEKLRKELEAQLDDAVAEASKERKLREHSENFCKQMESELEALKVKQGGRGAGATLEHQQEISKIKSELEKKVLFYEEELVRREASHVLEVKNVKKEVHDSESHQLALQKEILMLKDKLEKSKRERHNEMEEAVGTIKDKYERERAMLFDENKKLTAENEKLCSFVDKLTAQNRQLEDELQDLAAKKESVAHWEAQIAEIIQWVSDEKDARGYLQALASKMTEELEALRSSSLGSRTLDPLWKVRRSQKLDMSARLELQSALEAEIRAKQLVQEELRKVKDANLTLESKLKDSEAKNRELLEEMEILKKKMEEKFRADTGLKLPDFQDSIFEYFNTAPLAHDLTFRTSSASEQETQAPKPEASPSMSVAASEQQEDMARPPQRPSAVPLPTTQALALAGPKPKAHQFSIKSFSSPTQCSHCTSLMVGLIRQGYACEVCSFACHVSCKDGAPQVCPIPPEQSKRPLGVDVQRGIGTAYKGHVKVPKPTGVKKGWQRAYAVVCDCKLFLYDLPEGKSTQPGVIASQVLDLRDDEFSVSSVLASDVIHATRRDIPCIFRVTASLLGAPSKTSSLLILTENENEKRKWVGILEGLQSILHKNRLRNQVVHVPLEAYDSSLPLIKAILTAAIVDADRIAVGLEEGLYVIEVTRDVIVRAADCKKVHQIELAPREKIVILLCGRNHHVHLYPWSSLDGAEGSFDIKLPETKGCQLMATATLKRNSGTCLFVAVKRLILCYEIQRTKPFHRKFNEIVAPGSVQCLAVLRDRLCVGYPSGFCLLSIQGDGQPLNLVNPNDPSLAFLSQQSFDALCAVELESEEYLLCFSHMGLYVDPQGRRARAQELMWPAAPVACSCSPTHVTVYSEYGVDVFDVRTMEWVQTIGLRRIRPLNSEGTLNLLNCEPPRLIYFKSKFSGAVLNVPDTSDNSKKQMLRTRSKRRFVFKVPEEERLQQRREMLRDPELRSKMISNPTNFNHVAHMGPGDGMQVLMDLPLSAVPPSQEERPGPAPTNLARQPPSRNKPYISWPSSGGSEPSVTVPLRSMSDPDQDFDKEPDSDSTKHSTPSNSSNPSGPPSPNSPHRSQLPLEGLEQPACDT
Procedure, shortened: as §1

KIT(D816V) = target: T26, KIT(D816V) (Homo sapiens, UniProt P10721, D816V)
T26 construct: purchased DiscoveRx KINOMEscan

DYRK1B = target: T27, DYRK1B (Homo sapiens, UniProt Q9Y463)
T27 construct: purchased DiscoveRx KINOMEscan
Procedure, shortened: as §1

BMPR1B = target: T28, BMPR1B (Homo sapiens, UniProt O00238)
T28 construct: purchased DiscoveRx KINOMEscan
Procedure, shortened: as §1

[3] = target: T29, TYK2(JH1domain-catalytic) (Homo sapiens, UniProt P29597)
T29 construct: TYK2(JH1domain-catalytic); purchased DiscoveRx KINOMEscan
Procedure, shortened: as §1

T1 sequence (Q12866 21-999): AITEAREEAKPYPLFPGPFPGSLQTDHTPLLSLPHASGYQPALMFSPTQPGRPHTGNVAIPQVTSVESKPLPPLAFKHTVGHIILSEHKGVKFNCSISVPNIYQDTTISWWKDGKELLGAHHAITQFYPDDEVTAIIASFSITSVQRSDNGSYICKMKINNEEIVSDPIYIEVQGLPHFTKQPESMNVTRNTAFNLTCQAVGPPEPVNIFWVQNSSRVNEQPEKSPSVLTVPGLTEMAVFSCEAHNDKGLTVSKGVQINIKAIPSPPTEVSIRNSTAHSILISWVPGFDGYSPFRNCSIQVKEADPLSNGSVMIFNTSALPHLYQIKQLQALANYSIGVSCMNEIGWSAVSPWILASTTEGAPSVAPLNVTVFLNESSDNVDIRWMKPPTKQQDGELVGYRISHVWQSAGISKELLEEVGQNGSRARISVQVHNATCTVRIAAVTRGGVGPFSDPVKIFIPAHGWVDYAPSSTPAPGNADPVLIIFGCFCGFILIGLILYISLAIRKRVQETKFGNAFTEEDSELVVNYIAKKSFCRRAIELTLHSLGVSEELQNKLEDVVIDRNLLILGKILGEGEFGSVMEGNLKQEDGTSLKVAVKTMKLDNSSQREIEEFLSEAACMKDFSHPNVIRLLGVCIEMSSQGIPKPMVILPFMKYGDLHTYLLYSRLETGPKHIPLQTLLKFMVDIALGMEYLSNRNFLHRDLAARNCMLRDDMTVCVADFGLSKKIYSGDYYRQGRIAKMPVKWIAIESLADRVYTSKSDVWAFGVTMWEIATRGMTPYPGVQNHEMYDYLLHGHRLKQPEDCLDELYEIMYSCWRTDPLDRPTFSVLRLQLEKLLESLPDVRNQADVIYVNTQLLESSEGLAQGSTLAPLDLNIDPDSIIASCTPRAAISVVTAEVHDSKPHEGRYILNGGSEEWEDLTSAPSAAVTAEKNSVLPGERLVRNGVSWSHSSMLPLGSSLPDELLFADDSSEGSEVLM

Cc1ccc(C2=Nc3cccnc3S(=O)(=O)c3ccccc32)cc1 [TBPT, 6-(p-tolyl)benzo[f] pyrido[2,3-b][1,4] thiazepine 11,11-dioxide]
remaining binding at 5 µM (MERTK; 5 μM): 100% | remaining binding at 10 µM (MERTK; 10 μM): 80% | remaining binding at 5 µM (GRK1; 5 μM): 100% | remaining binding at 10 µM (GRK1; 10 μM): 100% | remaining binding at 5 µM (MEK4; 5 μM): 82% | remaining binding at 10 µM (MEK4; 10 μM): 100% | remaining binding at 5 µM (PIK3CB; 5 μM): 36% | remaining binding at 10 µM (PIK3CB; 10 μM): 100% | remaining binding at 5 µM (CSK; 5 μM): 96% | remaining binding at 10 µM (CSK; 10 μM): 100% | remaining binding at 5 µM (MET; 5 μM): 100% | remaining binding at 10 µM (MET; 10 μM): 92% | remaining binding at 5 µM (ERBB2; 5 μM): 100% | remaining binding at 10 µM (ERBB2; 10 μM): 100% | remaining binding at 5 µM (PKAC-alpha; 5 μM): 93% | remaining binding at 10 µM (PKAC-alpha; 10 μM): 100% | remaining binding at 5 µM (CSNK2A2; 5 μM): 100% | remaining binding at 10 µM (CSNK2A2; 10 μM): 100% | remaining binding at 5 µM (NEK5; 5 μM): 100% | remaining binding at 10 µM (NEK5; 10 μM): 100% | remaining binding at 5 µM (BRSK2; 5 μM): 100% | remaining binding at 10 µM (BRSK2; 10 μM): 100% | remaining binding at 5 µM (CDKL5; 5 μM): 100% | remaining binding at 10 µM (CDKL5; 10 μM): 100% | remaining binding at 5 µM (TRKA; 5 μM): 100% | remaining binding at 10 µM (TRKA; 10 μM): 97% | remaining binding at 5 µM (EPHA3; 5 μM): 80% | remaining binding at 10 µM (EPHA3; 10 μM): 100% | remaining binding at 5 µM (ACVR2B; 5 μM): 87% | remaining binding at 10 µM (ACVR2B; 10 μM): 82% | remaining binding at 5 µM (CSNK1E; 5 μM): 100% | remaining binding at 10 µM (CSNK1E; 10 μM): 96% | remaining binding at 5 µM ([1]; 5 μM): 100% | remaining binding at 10 µM ([1]; 10 μM): 93% | remaining binding at 5 µM (CTK; 5 μM): 94% | remaining binding at 10 µM (CTK; 10 μM): 100% | remaining binding at 5 µM (NEK7; 5 μM): 100% | remaining binding at 10 µM (NEK7; 10 μM): 89% | remaining binding at 5 µM (BLK; 5 μM): 88% | remaining binding at 10 µM (BLK; 10 μM): 88% | remaining binding at 5 µM (CAMKK1; 5 μM): 100% | remaining binding at 10 µM (CAMKK1; 10 μM): 92% | remaining binding at 5 µM (FGFR3; 5 μM): 89% | remaining binding at 10 µM (FGFR3; 10 μM): 100% | remaining binding at 5 µM ([2]; 5 μM): 81% | remaining binding at 10 µM ([2]; 10 μM): 100% | remaining binding at 5 µM (TLK1; 5 μM): 93% | remaining binding at 10 µM (TLK1; 10 μM): 97% | remaining binding at 5 µM (ZAK; 5 μM): 94% | remaining binding at 10 µM (ZAK; 10 μM): 83% | remaining binding at 5 µM (MRCKB; 5 μM): 89% | remaining binding at 10 µM (MRCKB; 10 μM): 92% | remaining binding at 5 µM (KIT(D816V); 5 μM): 62% | remaining binding at 10 µM (KIT(D816V); 10 μM): 99% | remaining binding at 5 µM (DYRK1B; 5 μM): 99% | remaining binding at 10 µM (DYRK1B; 10 μM): 100% | remaining binding at 5 µM (BMPR1B; 5 μM): 95% | remaining binding at 10 µM (BMPR1B; 10 μM): 88% | remaining binding at 5 µM ([3]; 5 μM): 69% | remaining binding at 10 µM ([3]; 10 μM): 100%
